Experiment: Ocular biodistribution of 14C-labelled cromolyn free drug after topical ocular instillation (liquid scintillation counting of tissues)
Format: in vivo, New Zealand white rabbits
Conditions: for TISSUE CONCENTRATION WEIGHTED MEAN: Examples 1-3
Protocol: A. Preparation of test article. The sodium cromoglycate free drug test article used in the ocular biodistribution studies (Examples 1, 2 and 3) was prepared according to the following formula: […]
B. The [propane-2-¹⁴C]cromolyn sodium used in the biodistribution studies was prepared as follows: 1,3-dichloro[2-¹⁴C]propan-2-ol was reacted with 2,6-dihydroxyacetophenone to give 1,3-bis (2-acetyl-3-hydroxy phenoxy)-2-hydroxy[2-¹⁴C]propane. This was treated with base and diethyl oxalate followed by acid catalysed cyclisation to give diethyl [propane-2-¹⁴C]cromolyn. Hydrolysis with sodium hydroxide gave the final product which was purified by crystallisation from water acetone. C. Specification and Handling of Experimental Animals and Tissues. • 1. Description of Experimental Animals: Female, New Zealand white rabbits (Hare Marland) weighing 2-3 kg were used in these studies. Upon receipt each animal was assigned an identification number and examined for gross signs of general health. The animals were individually housed in standard rabbit cages and given access to food and water ad libitum. Animals were received approximately one week before initiation of the study. Prior to the study the animals were randomly assigned to treatment groups using either a random number table or generator. Immediately before treatment the ocular tissues were examined for signs of irritation. If irritation was observed, either another animal was substituted or the condition noted. Food was removed at the time of treatment Water was available ad libitum throughout. • 2. Topical Ocular Instillation of Test Article: Animals were treated unilaterally by topical ocular instillation using a positive displacement pipet. The eyelids were gently retracted and the dose applied onto the cornea taking care to avoid touching the tissue with the pipet tip. The animal was positioned such that the dose flowed into the lower cul-de-sac. After treatment the animals were returned to their cages. • 3. Collection of Plasma Sample: Immediately prior to euthanasia, animals were placed in a standard rabbit restrainer. A small amount of xylene was applied to an eartip to enhance blood flow. The lateral ear vein was lanced and approximately 500 ul of blood collected in a Microtainer Brand Tube with EDTA (Becton Dickinson). The tubes were mixed by inversion and centrifuged in a microfuge for 10 minutes. A 200 ul aliquot of plasma was transferred to a scintillation vial for further processing of the sample. • 4. Euthanasia: Animals were euthanized by intravenous injection of a lethal dose of T61 Euthanasia Fluid (Hoechst-Roussel) into a lateral ear vein. Death was verified by absence of respiration, heart beat, and ocular reflexes. • 5. Dissection of Ocular Tissues. • a. Removal of Aqueous Humor: Aqueous humor was removed using a 1 ml disposable, plastic syringe equipped with a 5/8"-27g needle. The needle was inserted into the anterior chamber at the limbus. The fluid was gently withdrawn and transferred to a preweighed scintillation vial. • b. Removal of Globe, Conjunctiva, and Nictitating Membrane: The eyelids were retracted using 6" curbed hemostats. Incisions were made at the corners of the eye to facilitate dissection of the conjunctiva. The palpebral conjunctiva and nictitating membrane were dissected free of the eyelids, muscle, and connective tissue using Wilmer-Converse conjunctiva scissors. The conjunctiva and nictitating membrane were grasped with straight Kirby tissue forceps to form a sack around the globe. The sack and its contents were removed from the socket as a unit using heavy curved nucleation scissors. Excess blood was removed from the outside of the sac by gentle blotting with gauze pads. • c. Dissection of Conjunctiva, and Nictitating Membrane: The nictitating membrane was grasped with straight Kirby tissue forceps. The conjunctiva was cut with heavy curved eye scissors along one edge of the nictitating membrane. […]

O=C(O)c1cc(=O)c2c(OCC(O)COc3cccc4oc(C(=O)O)cc(=O)c34)cccc2o1 [CROMOLYN FREE DRUG, 5,5' -[(2-Hydroxy-1,3-propanediyl)bis-(oxy)]bis[4-oxo-4H-1-benzopyran-2-carboxylic acid]]
TISSUE CONCENTRATION MEAN (AQUEOUS HUMOR, Rx eye, 2 HR, EXAMPLE 1): 70 ng Cromolyn/g or ml Tissue | TISSUE CONCENTRATION MEAN (AQUEOUS HUMOR, Rx eye, 2 HR, EXAMPLE 2): 36 ng Cromolyn/g or ml Tissue | TISSUE CONCENTRATION MEAN (AQUEOUS HUMOR, Rx eye, 2 HR, EXAMPLE 3): 129 ng Cromolyn/g or ml Tissue | TISSUE CONCENTRATION WEIGHTED MEAN (AQUEOUS HUMOR, Rx eye, 2 HR): 39 ng Cromolyn/g or ml Tissue | TISSUE CONCENTRATION MEAN (AQUEOUS HUMOR, Rx eye, 4 HR, EXAMPLE 1): 37 ng Cromolyn/g or ml Tissue | TISSUE CONCENTRATION MEAN (AQUEOUS HUMOR, Rx eye, 4 HR, EXAMPLE 2): 29 ng Cromolyn/g or ml Tissue | TISSUE CONCENTRATION MEAN (AQUEOUS HUMOR, Rx eye, 4 HR, EXAMPLE 3): 68 ng Cromolyn/g or ml Tissue | TISSUE CONCENTRATION WEIGHTED MEAN (AQUEOUS HUMOR, Rx eye, 4 HR): 35 ng Cromolyn/g or ml Tissue | TISSUE CONCENTRATION MEAN (AQUEOUS HUMOR, Rx eye, 8 HR, EXAMPLE 1): 16 ng Cromolyn/g or ml Tissue | TISSUE CONCENTRATION MEAN (AQUEOUS HUMOR, Rx eye, 8 HR, EXAMPLE 2): 13 ng Cromolyn/g or ml Tissue | TISSUE CONCENTRATION MEAN (AQUEOUS HUMOR, Rx eye, 8 HR, EXAMPLE 3): 10 ng Cromolyn/g or ml Tissue | TISSUE CONCENTRATION WEIGHTED MEAN (AQUEOUS HUMOR, Rx eye, 8 HR): 13 ng Cromolyn/g or ml Tissue | TISSUE CONCENTRATION MEAN (CONJUNCTIVA, Rx eye, 2 HR, EXAMPLE 1): 3501 ng Cromolyn/g or ml Tissue | TISSUE CONCENTRATION MEAN (CONJUNCTIVA, Rx eye, 2 HR, EXAMPLE 2): 3316 ng Cromolyn/g or ml Tissue | TISSUE CONCENTRATION MEAN (CONJUNCTIVA, Rx eye, 2 HR, EXAMPLE 3): 2332 ng Cromolyn/g or ml Tissue | TISSUE CONCENTRATION WEIGHTED MEAN (CONJUNCTIVA, Rx eye, 2 HR): 2887 ng Cromolyn/g or ml Tissue | TISSUE CONCENTRATION MEAN (CONJUNCTIVA, Rx eye, 4 HR, EXAMPLE 1): 742 ng Cromolyn/g or ml Tissue | TISSUE CONCENTRATION MEAN (CONJUNCTIVA, Rx eye, 4 HR, EXAMPLE 2): 683 ng Cromolyn/g or ml Tissue | TISSUE CONCENTRATION MEAN (CONJUNCTIVA, Rx eye, 4 HR, EXAMPLE 3): 772 ng Cromolyn/g or ml Tissue | TISSUE CONCENTRATION WEIGHTED MEAN (CONJUNCTIVA, Rx eye, 4 HR): 716 ng Cromolyn/g or ml Tissue | TISSUE CONCENTRATION MEAN (CONJUNCTIVA, Rx eye, 8 HR, EXAMPLE 1): 687 ng Cromolyn/g or ml Tissue | TISSUE CONCENTRATION MEAN (CONJUNCTIVA, Rx eye, 8 HR, EXAMPLE 2): 578 ng Cromolyn/g or ml Tissue | TISSUE CONCENTRATION MEAN (CONJUNCTIVA, Rx eye, 8 HR, EXAMPLE 3): 614 ng Cromolyn/g or ml Tissue | TISSUE CONCENTRATION WEIGHTED MEAN (CONJUNCTIVA, Rx eye, 8 HR): 607 ng Cromolyn/g or ml Tissue | TISSUE CONCENTRATION MEAN (CORNES, Rx eye, 2 HR, EXAMPLE 1): 1005 ng Cromolyn/g or ml Tissue | TISSUE CONCENTRATION MEAN (CORNES, Rx eye, 2 HR, EXAMPLE 2): 478 ng Cromolyn/g or ml Tissue | TISSUE CONCENTRATION MEAN (CORNES, Rx eye, 2 HR, EXAMPLE 3): 683 ng Cromolyn/g or ml Tissue | TISSUE CONCENTRATION WEIGHTED MEAN (CORNES, Rx eye, 2 HR): 519 ng Cromolyn/g or ml Tissue | TISSUE CONCENTRATION MEAN (CORNES, Rx eye, 4 HR, EXAMPLE 1): 487 ng Cromolyn/g or ml Tissue | TISSUE CONCENTRATION MEAN (CORNES, Rx eye, 4 HR, EXAMPLE 2): 298 ng Cromolyn/g or ml Tissue | TISSUE CONCENTRATION MEAN (CORNES, Rx eye, 4 HR, EXAMPLE 3): 381 ng Cromolyn/g or ml Tissue | TISSUE CONCENTRATION WEIGHTED MEAN (CORNES, Rx eye, 4 HR): 337 ng Cromolyn/g or ml Tissue | TISSUE CONCENTRATION MEAN (CORNES, Rx eye, 8 HR, EXAMPLE 1): 160 ng Cromolyn/g or ml Tissue | TISSUE CONCENTRATION MEAN (CORNES, Rx eye, 8 HR, EXAMPLE 2): 165 ng Cromolyn/g or ml Tissue | TISSUE CONCENTRATION MEAN (CORNES, Rx eye, 8 HR, EXAMPLE 3): 127 ng Cromolyn/g or ml Tissue | TISSUE CONCENTRATION WEIGHTED MEAN (CORNES, Rx eye, 8 HR): 162 ng Cromolyn/g or ml Tissue | TISSUE CONCENTRATION MEAN (IRIS-CILIARY BODY, Rx eye, 2 HR, EXAMPLE 3): 56 ng Cromolyn/g or ml Tissue | TISSUE CONCENTRATION MEAN (IRIS-CILIARY BODY, Rx eye, 4 HR, EXAMPLE 3): 29 ng Cromolyn/g or ml Tissue | TISSUE CONCENTRATION MEAN (NICTITATING MEMBRANE, Rx eye, 2 HR, EXAMPLE 1): 2136 ng Cromolyn/g or ml Tissue | TISSUE CONCENTRATION MEAN (NICTITATING MEMBRANE, Rx eye, 2 HR, EXAMPLE 2): 2438 ng Cromolyn/g or ml Tissue | TISSUE CONCENTRATION MEAN (NICTITATING MEMBRANE, Rx eye, 2 HR, EXAMPLE 3): 2618 ng Cromolyn/g or ml Tissue | TISSUE CONCENTRATION WEIGHTED MEAN (NICTITATING MEMBRANE, Rx eye, 2 HR): 2319 ng Cromolyn/g or ml Tissue | TISSUE CONCENTRATION MEAN (NICTITATING MEMBRANE, Rx eye, 4 HR, EXAMPLE 1): 480 ng Cromolyn/g or ml Tissue | TISSUE CONCENTRATION MEAN (NICTITATING MEMBRANE, Rx eye, 4 HR, EXAMPLE 2): 484 ng Cromolyn/g or ml Tissue | TISSUE CONCENTRATION MEAN (NICTITATING MEMBRANE, Rx eye, 4 HR, EXAMPLE 3): 576 ng Cromolyn/g or ml Tissue | TISSUE CONCENTRATION WEIGHTED MEAN (NICTITATING MEMBRANE, Rx eye, 4 HR): 494 ng Cromolyn/g or ml Tissue | TISSUE CONCENTRATION MEAN (NICTITATING MEMBRANE, Rx eye, 8 HR, EXAMPLE 1): 348 ng Cromolyn/g or ml Tissue | TISSUE CONCENTRATION MEAN (NICTITATING MEMBRANE, Rx eye, 8 HR, EXAMPLE 2): 350 ng Cromolyn/g or ml Tissue | TISSUE CONCENTRATION MEAN (NICTITATING MEMBRANE, Rx eye, 8 HR, EXAMPLE 3): 462 ng Cromolyn/g or ml Tissue | TISSUE CONCENTRATION WEIGHTED MEAN (NICTITATING MEMBRANE, Rx eye, 8 HR): 383 ng Cromolyn/g or ml Tissue | TISSUE CONCENTRATION MEAN (PLASMA, 2 HR, EXAMPLE 3): 1 ng Cromolyn/g or ml Tissue | Cromolyn levels in the aqueous humor of the untreated eye (any time point (2, 4, 8 hours), Example 1 results text): no detectable
